Assay results taken from patent publication US20030055084A1, “Pharmaceutical compounds and methods of use thereof” (Millennium Pharmaceutical, Inc., priority 2001, published 2003).

Test system: Leukotriene B4 production in ionophore-stimulated human whole blood
Experiment: Inhibition of leukotriene B4 production in ionophore-stimulated human whole blood
Format: cell-based
Conditions: calcium ionophore stimulated, LTB4 by EIA, read-out: HWB IC50
Procedure: Inhibition of Leukotriene B4 Production in lonophore-Stimulated Human Whole Blood
Human blood was drawn into heparinized blood collection tubes, and aliquoted in 1 ml portions into 1.5 ml microfuge tubes. Test compound ([…]) of varying concentrations, dissolved in DMSO, was added to the blood sample and incubated for 15 minutes at 37° C. Calcium ionophore ([…]) in DMSO was added to a final concentration of […], and the samples were incubated for 30 minutes at 37° C. Samples are then centrifuged at 1100×g (2500 rpm, H1000B rotor, in a Sorvall centrifuge) for 10 minutes at 4° C. Supernatant ([…]) was transferred into 1 1.5 ml microfuge tube, […] of cold methanol added, and proteins precipitated on ice for 30 minutes. The samples were centrifuged at 110×g for 10 minutes at 4° C., and the supernatant assayed for LTB4 using a commercially available EIA kit (Cayman Chemical) according to manufacturer's specifications. The following IC50 results (nM) were obtained for the specified compounds having the structures as indicated for the corresponding compound number.

SMILES | IC50
NC(=O)N(O)CCC#C[C@@H]1CC[C@H](c2cc3cc(C(F)(F)F)ccc3o2)O1 [Compound 4B] | 298 nM
NC(=O)N(O)CCC#C[C@H]1CC[C@@H](c2cc3ccccc3s2)O1 [Compound 2B] | 878 nM
NC(=O)N(O)CCC#C[C@H]1CCC(c2cc3cc(F)ccc3o2)O1 (stereo partly drawn) [Compound 6B] | 388 nM

Now those with a lower IC50, led by results:

IC50 | SMILES
197 nM | C[C@@H](C#C[C@@H]1CC[C@@H](c2cc3ccccc3s2)O1)N(O)C(N)=O [Compound 3]
112 nM | NC(=O)N(O)CCC#C[C@@H]1CC[C@@H](c2cc3ccccc3s2)O1 [Compound 2A]
101 nM | NC(=O)N(O)CCC#C[C@@H]1CCC(c2cc3cc(F)ccc3o2)O1 (stereo partly drawn) [Compound 6A]
